# Reference: US8580794B2 (AbbVie Inc., priority 2009, dated 2013)
# Legend:
# RS4;11 cells = assay: RS4;11 Cell Viability Assay (CellTiter Glo); type: cell-based; conditions: 10% human serum;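 also: RS4,11 acute lymphoblastic leukemia cells, viability as percent of untreated control cells, EC50 for loss of viable cells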
# Protocol: The acute lymphoblastic leukemia (ALL) cell line RS4;11 was used as the primary human cell line to assess the cellular activity of Bcl-2 selective agents in vitro and their efficacy in vivo.
# Cell cytotoxicity EC50 values were assessed using CellTiter Glo (Promega) according to the manufacturer's recommendations. The EC50 values were determined as a percentage of viable cells following treatment compared to the untreated control cells.
# GST-Bc1-2 = GST-Bc1-2 (Homo sapiens, UniProt P10415); assay: Time Resolved-Fluorescence Resonance Energy Transfer (TR-FRET) Bcl-2 binding assay with F-Bak peptide probe; conditions: GST-Bcl-2 1 nM, F-Bak probe 100 nM, Tb-anti-GST 1 nM; '<' = below limit of detection; read-out: TR-FRET Bcl-2 Binding Ki
# Chain of GST-Bc1-2 (P10415 whole entry): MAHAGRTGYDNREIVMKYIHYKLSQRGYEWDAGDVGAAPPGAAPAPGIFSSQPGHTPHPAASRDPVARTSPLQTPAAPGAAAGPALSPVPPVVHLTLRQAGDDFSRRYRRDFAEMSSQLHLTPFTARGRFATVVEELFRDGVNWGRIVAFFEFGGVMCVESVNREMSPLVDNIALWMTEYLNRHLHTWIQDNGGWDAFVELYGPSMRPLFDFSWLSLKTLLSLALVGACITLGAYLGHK
# [1] = Homo sapiens, RS4-11, 48 h, 50,000 cells per well
Structure (SMILES),EC50 (RS4;11 cells; [1]) [nM],Ki (GST-Bc1-2) [nM],"EC50 (RS4;11 cells; 50,000 cells per well, 48 hours) [nM]"
"CC1(C)CCC(CN2CCN(c3ccc(C(=O)NS(=O)(=O)c4ccc5c(c4)nnn5CC4CCOCC4)c(Oc4cnc5[nH]ccc5c4)c3)CC2)=C(c2ccc(Cl)cc2)C1 [Example 384, 4-(4-{[2-(4-chlorophenyl)-4,4-dimethylcyclohex-1-en-1-yl]methyl}piperazin-1-yl)-2-(1H-pyrrolo[2,3-b]pyridin-5-yloxy)-N-{[1-(tetrahydro-2H-pyran-4-ylmethyl)-1H-benzotriazol-5-yl]sulfonyl}benzamide]",> 1000,0.704,–
"CC1(C)CCC(CN2CCN(c3ccc(C(=O)NS(=O)(=O)c4cnc(OCC5CCC6(CC5)CNC(=O)O6)c(Cl)c4)c(Oc4cnc5[nH]ccc5c4)c3)CC2)=C(c2ccc(Cl)cc2)C1 (single isomer, unassigned) [Example 397, N-[(5-chloro-6-{[(5s,8s)-2-oxo-1-oxa-3-azaspiro[4.5]dec-8-yl]methoxy}pyridin-3-yl)sulfonyl]-4-(4-{[2-(4-chlorophenyl)-4,4-dimethylcyclohex-1-en-1-yl]methyl}piperazin-1-yl)-2-(1H-pyrrolo[2,3-b]pyridin-5-yloxy)benzamide]",–,0.041,113
"CC1(C)CCC(CN2CCN(c3ccc(C(=O)NS(=O)(=O)c4cnc(OC[C@H]5CC[C@](O)(CO)CC5)c(Cl)c4)c(Oc4cnc5[nH]ccc5c4)c3)CC2)=C(c2ccc(Cl)cc2)C1 [Example 400, N-[(5-chloro-6-{[cis-4-hydroxy-4-(hydroxymethyl)cyclohexyl]methoxy}pyridin-3-yl)sulfonyl]-4-(4-{[2-(4-chlorophenyl)-4,4-dimethylcyclohex-1-en-1-yl]methyl}piperazin-1-yl)-2-(1H-pyrrolo[2,3-b]pyridin-5-yloxy)benzamide]",64,0.031,–
"CC1(C)CCC(CN2CCN(c3ccc(C(=O)NS(=O)(=O)c4ccc(NN5CCS(=O)(=O)CC5)c([N+](=O)[O-])c4)c(Oc4cnc5[nH]ccc5c4)c3)CC2)=C(c2ccc(Cl)cc2)C1 [Example 107, Trans-4-(4-{[2-(4-chlorophenyl)-4,4-dimethylcyclohex-1-en-1-yl]methyl}piperazin-1-yl)-N-({4-[(1,1-dioxidothiomorpholin-4-yl)amino]-3-nitrophenyl}sulfonyl)-2-(1H-pyrrolo[2,3-b]pyridin-5-yloxy)benzamide]",61.2,0.035,–
"CC1(C)CCC(CN2CCN(c3ccc(C(=O)NS(=O)(=O)c4ccc(NC(=O)N5CCC(N6CCOCC6)CC5)c(Cl)c4)c(Oc4cnc5[nH]ccc5c4)c3)CC2)=C(c2ccc(Cl)cc2)C1 [Example 398, N-(2-chloro-4-{[4-(4-{[2-(4-chlorophenyl)-4,4-dimethylcyclohex-1-en-1-yl]methyl}piperazin-1-yl)-2-(1H-pyrrolo[2,3-b]pyridin-5-yloxy)benzoyl]sulfamoyl}phenyl)-4-(morpholin-4-yl)piperidine-1-carboxamide]",548,0.149,–
"COC1CCN(C(=O)Nc2ccc(S(=O)(=O)NC(=O)c3ccc(N4CCN(CC5=C(c6ccc(Cl)cc6)CC(C)(C)CC5)CC4)cc3Oc3cnc4[nH]ccc4c3)cc2[N+](=O)[O-])CC1 [Example 386, N-(4-{[4-(4-{[2-(4-chlorophenyl)-4,4-dimethylcyclohex-1-en-1-yl]methyl}piperazin-1-yl)-2-(1H-pyrrolo[2,3-b]pyridin-5-yloxy)benzoyl]sulfamoyl}-2-nitrophenyl)-4-methoxypiperidine-1-carboxamide]",8.38,< 0.01,–
"COC[C@H]1CC[C@H](CNc2ccc(S(=O)(=O)NC(=O)c3ccc(N4CCN(CC5=C(c6ccc(Cl)cc6)CC(C)(C)CC5)CC4)cc3Oc3cnc4[nH]ccc4c3)cc2[N+](=O)[O-])CC1 [Example 383, 4-(4-{[2-(4-chlorophenyl)-4,4-dimethylcyclohex-1-en-1-yl]methyl}piperazin-1-yl)-N-{[4-({[trans-4-(methoxymethyl)cyclohexyl]methyl}amino)-3-nitrophenyl]sulfonyl}-2-(1H-pyrrolo[2,3-b]pyridin-5-yloxy)benzamide]",12.4,< 0.01,–
"CC1(C)CCC(CN2CCN(c3ccc(C(=O)NS(=O)(=O)c4cnc(OCC5CCC6(CC5)CNC(=O)O6)c(Cl)c4)c(Oc4cnc5[nH]ccc5c4)c3)CC2)=C(c2ccc(Cl)cc2)C1 (single isomer, unassigned) [Example 396, N-[(5-chloro-6-{[(5r,8r)-2-oxo-1-oxa-3-azaspiro[4.5]dec-8-yl]methoxy}pyridin-3-yl)sulfonyl]-4-(4-{[2-(4-chlorophenyl)-4,4-dimethylcyclohex-1-en-1-yl]methyl}piperazin-1-yl)-2-(1H-pyrrolo[2,3-b]pyridin-5-yloxy)benzamide]",84.1,0.014,–
Cc1nc2c(s1)CC(COc1ncc(S(=O)(=O)NC(=O)c3ccc(N4CCN(CC5=C(c6ccc(Cl)cc6)CC(C)(C)CC5)CC4)cc3Oc3cnc4[nH]ccc4c3)cc1Cl)CC2 (stereo not drawn) [Example 387],911,< 0.01,–
"COCC1CCN(C(=O)Nc2ccc(S(=O)(=O)NC(=O)c3ccc(N4CCN(CC5=C(c6ccc(Cl)cc6)CC(C)(C)CC5)CC4)cc3Oc3cnc4[nH]ccc4c3)cc2Cl)CC1 [Example 395, N-(2-chloro-4-{[4-(4-{[2-(4-chlorophenyl)-4,4-dimethylcyclohex-1-en-1-yl]methyl}piperazin-1-yl)-2-(1H-pyrrolo[2,3-b]pyridin-5-yloxy)benzoyl]sulfamoyl}phenyl)-4-(methoxymethyl)piperidine-1-carboxamide]",> 1000,0.257,–
"COC(=O)[C@H]1CC[C@H](CNc2ccc(S(=O)(=O)NC(=O)c3ccc(N4CCN(CC5=C(c6ccc(Cl)cc6)CC(C)(C)CC5)CC4)cc3Oc3cnc4[nH]ccc4c3)cc2[N+](=O)[O-])CC1 [Example 379, methyl trans-4-{[(4-{[4-(4-{[2-(4-chlorophenyl)-4,4-dimethylcyclohex-1-en-1-yl]methyl}piperazin-1-yl)-2-(1H-pyrrolo[2,3-b]pyridin-5-yloxy)benzoyl]sulfamoyl}-2-nitrophenyl)amino]methyl}cyclohexanecarboxylate]",19.4,< 0.01,–
"CC1(C)CCC(CN2CCN(c3ccc(C(=O)NS(=O)(=O)c4ccc(NC(=O)N5CCC(C#N)CC5)c(Cl)c4)c(Oc4cnc5[nH]ccc5c4)c3)CC2)=C(c2ccc(Cl)cc2)C1 [Example 393, N-(2-chloro-4-{[4-(4-{[2-(4-chlorophenyl)-4,4-dimethylcyclohex-1-en-1-yl]methyl}piperazin-1-yl)-2-(1H-pyrrolo[2,3-b]pyridin-5-yloxy)benzoyl]sulfamoyl}phenyl)-4-cyanopiperidine-1-carboxamide]",> 1000,0.263,–
"CC1(C)CCC(CN2CCN(c3ccc(C(=O)NS(=O)(=O)c4cnc5c(ccn5CC5CCOCC5)c4)c(Oc4cnc5[nH]ccc5c4)c3)CC2)=C(c2ccc(Cl)cc2)C1 [Example 388, 4-(4-{[2-(4-chlorophenyl)-4,4-dimethylcyclohex-1-en-1-yl]methyl}piperazin-1-yl)-2-(1H-pyrrolo[2,3-b]pyridin-5-yloxy)-N-{[1-(tetrahydro-2H-pyran-4-ylmethyl)-1H-pyrrolo[2,3-b]pyridin-5-yl]sulfonyl}benzamide]",> 1000,0.812,–
"COC[C@H]1CC[C@@H](CNc2ccc(S(=O)(=O)NC(=O)c3ccc(N4CCN(CC5=C(c6ccc(Cl)cc6)CC(C)(C)CC5)CC4)cc3Oc3cnc4[nH]ccc4c3)cc2[N+](=O)[O-])CC1 [Example 382, 4-(4-{[2-(4-chlorophenyl)-4,4-dimethylcyclohex-1-en-1-yl]methyl}piperazin-1-yl)-N-{[4-({[cis-4-(methoxymethyl)cyclohexyl]methyl}amino)-3-nitrophenyl]sulfonyl}-2-(1H-pyrrolo[2,3-b]pyridin-5-yloxy)benzamide]",27,< 0.01,–
"CC1(C)CCC(CN2CCN(c3ccc(C(=O)NS(=O)(=O)c4cnc(NC5CCN(C6CCOCC6)CC5)c(Br)c4)c(Oc4cnc5[nH]ccc5c4)c3)CC2)=C(c2ccc(Cl)cc2)C1 [Example 61, N-({5-bromo-6-[(1-tetrahydro-2H-pyran-4-ylpiperidin-4-yl)amino]pyridin-3-yl}sulfonyl)-4-(4-{[2-(4-chlorophenyl)-4,4-dimethylcyclohex-1-en-1-yl]methyl}piperazin-1-yl)-2-(1H-pyrrolo[2,3-b]pyridin-5-yloxy)benzamide]",183,0.091,–
"CC1(C(=O)O)CCC(c2ccc(Cl)cc2)=C(CN2CCN(c3ccc(C(=O)NS(=O)(=O)c4ccc(NCC5CCOCC5)c([N+](=O)[O-])c4)c(Oc4cnc5[nH]ccc5c4)c3)CC2)C1 (stereo not drawn) [Example 404, 4-(4-chlorophenyl)-1-methyl-3-[(4-{4-[({3-nitro-4-[(tetrahydro-2H-pyran-4-ylmethyl)amino]phenyl}sulfonyl)carbamoyl]-3-(1H-pyrrolo[2,3-b]pyridin-5-yloxy)phenyl}piperazin-1-yl)methyl]cyclohex-3-ene-1-carboxylic acid]",> 1000,< 0.01,–
"COCC1(C)CCC(CN2CCN(c3ccc(C(=O)NS(=O)(=O)c4ccc(NCC5CCOCC5)c([N+](=O)[O-])c4)c(Oc4cnc5[nH]ccc5c4)c3)CC2)=C(c2ccc(Cl)cc2)C1 (stereo not drawn) [Example 390, 4-(4-{[2-(4-chlorophenyl)-4-(methoxymethyl)-4-methylcyclohex-1-en-1-yl]methyl}piperazin-1-yl)-N-({3-nitro-4-[(tetrahydro-2H-pyran-4-ylmethyl)amino]phenyl}sulfonyl)-2-(1H-pyrrolo[2,3-b]pyridin-5-yloxy)benzamide]",5.06,< 0.01,–
"CC1(C)CCC(CN2CCN(c3ccc(C(=O)NS(=O)(=O)c4cnc5c(c4)c(Cl)cn5CC4CCOCC4)c(Oc4cnc5[nH]ccc5c4)c3)CC2)=C(c2ccc(Cl)cc2)C1 [Example 389, 4-(4-{[2-(4-chlorophenyl)-4,4-dimethylcyclohex-1-en-1-yl]methyl}piperazin-1-yl)-N-{[3-chloro-1-(tetrahydro-2H-pyran-4-ylmethyl)-1H-pyrrolo[2,3-b]pyridin-5-yl]sulfonyl}-2-(1H-pyrrolo[2,3-b]pyridin-5-yloxy)benzamide]",733,0.774,–
